Experimental data taken from BigSolDB 2.1.

Cc1nc2n(c(=O)c1CCN1CCC(c3noc4cc(F)ccc34)CC1)CCCC2O (stereo not given)
solubility (mole fraction)
Conditions	288.15 K	293.15 K	298.15 K	303.15 K	308.15 K	313.15 K	318.15 K	323.15 K	328.15 K
in 1,4-dioxane	0.00042	0.000595	0.000832	0.00115	0.00159	0.00214	0.00292	0.00382	0.00495
in THF	0.000399	0.00055	0.000757	0.00101	0.00134	0.00177	0.00232	0.00312	0.00391
in acetone	6.42e-05	8.92e-05	0.000126	0.000171	0.000233	0.000314	0.000438	0.000556	0.000702
in acetonitrile	2.45e-05	3.58e-05	5.16e-05	7.32e-05	0.000101	0.000143	0.000195	0.000263	0.00035
in ethanol	6.58e-05	9.25e-05	0.000129	0.000178	0.000236	0.000338	0.00045	0.00059	0.00079
in ethyl acetate	5.95e-05	8.43e-05	0.000118	0.000164	0.000225	0.000311	0.000415	0.00056	0.000742
in isopropanol	2.65e-05	3.97e-05	5.8e-05	8.16e-05	0.00013	0.000179	0.000269	0.000363	0.000502
in methanol	0.000103	0.000143	0.000192	0.00026	0.000347	0.000463	0.000618	0.000815	0.00105
in methyl acetate	7.29e-05	0.000101	0.000141	0.000196	0.000266	0.000361	0.000503	0.000643	0.000814
in n-butanol	8.99e-05	0.000128	0.000179	0.000249	0.000347	0.000443	0.000587	0.000829	0.00115
in n-butyl acetate	5.19e-05	7.43e-05	0.000105	0.000147	0.000204	0.000282	0.000381	0.000514	0.000692
in n-hexanol	7.11e-05	0.00012	0.000175	0.000244	0.000332	0.000465	0.000682	0.000958	0.00125
in n-pentanol	9.07e-05	0.000129	0.000184	0.000258	0.000364	0.000553	0.000742	0.000963	0.00128
in n-propanol	7.03e-05	0.000102	0.000133	0.000214	0.000298	0.000391	0.00056	0.000768	0.00107
in n-propyl acetate	5.47e-05	7.82e-05	0.000111	0.000155	0.000214	0.000294	0.000398	0.000537	0.000728
